Experiments:
ACE2 [1] = molecular target: T1, ACE2 (Homo sapiens, UniProt Q9BYF1); conditions: it has been reported; no reference given; cited from earlier work
ACE2 [2] = molecular target: T1, ACE2; experiment: Directed screen of ACE2 versus a set of metalloprotease inhibitors; type: biochemical; conditions: directed screen of GlaxoSmithKline metalloprotease inhibitor set

T1 sequence (Q9BYF1 18-805): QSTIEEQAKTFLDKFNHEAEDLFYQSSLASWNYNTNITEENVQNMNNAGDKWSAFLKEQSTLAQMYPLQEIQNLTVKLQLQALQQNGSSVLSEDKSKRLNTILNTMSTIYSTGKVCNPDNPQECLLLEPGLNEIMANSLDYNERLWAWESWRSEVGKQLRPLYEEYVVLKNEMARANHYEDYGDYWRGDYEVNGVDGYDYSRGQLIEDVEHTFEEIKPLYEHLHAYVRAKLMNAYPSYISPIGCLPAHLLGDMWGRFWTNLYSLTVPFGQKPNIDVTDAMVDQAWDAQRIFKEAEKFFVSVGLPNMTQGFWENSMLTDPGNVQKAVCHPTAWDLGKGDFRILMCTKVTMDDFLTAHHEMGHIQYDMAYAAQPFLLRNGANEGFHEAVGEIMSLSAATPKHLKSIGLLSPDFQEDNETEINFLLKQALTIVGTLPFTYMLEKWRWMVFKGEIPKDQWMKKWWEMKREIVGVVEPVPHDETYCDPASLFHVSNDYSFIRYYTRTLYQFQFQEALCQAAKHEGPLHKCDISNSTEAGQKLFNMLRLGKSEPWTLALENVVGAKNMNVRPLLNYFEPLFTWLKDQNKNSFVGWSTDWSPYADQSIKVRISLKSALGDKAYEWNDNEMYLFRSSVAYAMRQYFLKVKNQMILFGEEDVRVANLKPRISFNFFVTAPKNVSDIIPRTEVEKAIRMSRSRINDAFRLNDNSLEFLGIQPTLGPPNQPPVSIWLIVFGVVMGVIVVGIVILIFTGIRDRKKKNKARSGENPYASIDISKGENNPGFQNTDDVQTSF

SMILES	effect on ACE2 enzyme activity (ACE2 [1])	activity in the ACE2 screen (ACE2 [2])
C[C@H](CS)C(=O)N1CCC[C@H]1C(=O)O [captopril]	do not attenuate ACE2 enzyme activity	inactive
NCCCC[C@H](N[C@@H](CCc1ccccc1)C(=O)O)C(=O)N1CCC[C@H]1C(=O)O [lisinopril]	do not attenuate ACE2 enzyme activity	–
